{"source": "the NIST ThermoML archive (doi:10.1016/j.fluid.2011.03.003)", "settings": "Liquid, Closed cell (Static) method", "note": "± gives the expanded uncertainty stated by the source."}
{"smiles": "CCC(=O)OC(C)C", "note": "[1-methylethyl propanoate]", "values": [{"measurement": "vapor or sublimation pressure", "setting": "337.66 K", "result": "24.6 ± 0.09", "unit": "kPa"}, {"measurement": "vapor or sublimation pressure", "setting": "342.61 K", "result": "29.5 ± 0.11", "unit": "kPa"}, {"measurement": "vapor or sublimation pressure", "setting": "347.62 K", "result": "35.68 ± 0.13", "unit": "kPa"}, {"measurement": "vapor or sublimation pressure", "setting": "352.67 K", "result": "42.43 ± 0.15", "unit": "kPa"}, {"measurement": "vapor or sublimation pressure", "setting": "357.58 K", "result": "50.12 ± 0.18", "unit": "kPa"}, {"measurement": "vapor or sublimation pressure", "setting": "362.57 K", "result": "59 ± 0.2", "unit": "kPa"}, {"measurement": "vapor or sublimation pressure", "setting": "382.65 K", "result": "101.3 ± 0.3", "unit": "kPa"}]}
{"smiles": "CCC(=O)O", "note": "[propanoic acid]", "values": [{"measurement": "vapor or sublimation pressure", "setting": "413.58 K", "result": "101.3 ± 1.2", "unit": "kPa"}]}
{"smiles": "CC(C)O", "note": "[propan-2-ol]", "values": [{"measurement": "vapor or sublimation pressure", "setting": "355.15 K", "result": "101.3 ± 1.2", "unit": "kPa"}]}
